{"source": "patent US20180050078A1", "about": "“COMPOSITION FOR IMPROVING OR PREVENTING NONALCOHOLIC FATTY LIVER” (KOHJIN LIFE SCIENCES CO., LTD., priority 2015, published 2018)", "test_system": "Mice (C57/B6J) fed with high-fat food", "excerpt": "Mice (C57/B6J, 8 weeks old male) were divided into 4 groups (5 animals each), and the first group (DB) was freely fed with ordinary food (CertifiedDiet “MF” manufactured by Oriental Yeast Co., ltd.). The second group (HFD) was freely fed with high-fat food (High Fat Diet 32, manufactured by CLEA Japan, Inc.), […].\nWhen the mouse was 20 weeks old, the body weight, the liver weight, the serum aspartate aminotransferase (AST), the alanine aminotransferase (ALT), the serum triglyceride (TG), the free fatty acid value (FFA) and the total cholesterol value (T-cho) were measured.", "key": {"[1]": {"conditions": "HFD6 (6 mg/kg/day) and HFD60 (60 mg/kg/day) groups in comparison to HFD group, 20 weeks old"}, "[2]": {"conditions": "high-fat food mice, glutathione in water 6 or 60 mg/kg/day, 20 weeks old"}}}
{"molecule": "N[C@@H](CCC(=O)N[C@@H](CS)C(=O)NCC(=O)O)C(=O)O", "note": "[glutathione]", "values": [{"measurement": "FFA (free fatty acid value)", "setting": "[1]", "result": "significant decrease"}, {"measurement": "T-cho (total cholesterol value)", "setting": "[1]", "result": "significant decrease"}, {"measurement": "TG (triglyceride value)", "setting": "[1]", "result": "significant decrease"}, {"measurement": "serum AST, ALT, TG, FFA and T-cho: dose dependence", "setting": "HFD6 group compared with HFD60 group", "result": "decrease dependently on the concentration"}, {"measurement": "consumption amounts of feed and water", "setting": "all of the groups (DB, HFD, HFD6, HFD60)", "result": "no significant difference"}, {"measurement": "deposition of fat on the liver by high-fat food", "setting": "high-fat food mice, glutathione 6 or 60 mg/kg/day", "result": "suppressed"}, {"measurement": "body weight", "setting": "[2]", "result": "decrease of the body weight was recognized"}, {"measurement": "liver weight", "setting": "[2]", "result": "decreased dependently on the concentration"}, {"measurement": "ratio of liver weight/body weight", "setting": "[2]", "result": "decrease of the body weight ratio was also recognized"}]}
